Results: patent publication EP4311544A1, “COMPOUNDS USEFUL AGAINST JELLYFISH STINGS” (Isdin, S. A., priority 2022, dated 2024)

Tests used:
P. noctiluca [1] = assay: Tentacle Skin Blood Agarose Assay (TSBAA): venom load as hemolytic area after natural stimulation of nematocyst discharge; format: cell-based; conditions: for discharge of nematocysts: summary statement on the results of Examples 1 and 2
Description: (§1) Jellyfish cultures: Jellyfish were cultivated by laboratory conditions in Loro Parque aquarium (Tenerife, Spain). The P. noctiluca adult individuals were breeding in kreisels tanks with a continuous water renewal, 33-35‰ salinity, 22°C temperature and light cycle of 12h light/12h dark. Individuals were daily fed with Artemia sp. nauplii, small pieces of the jellyfish Aurelia sp., eggs of Merluccius and Parapenaeus longirostris.
Briefly, an agarose gel preparation incorporating sheep red blood cells (SRBCs) (Thermo Fisher Scientific) was used covered by a thin tissue of pig intestine to simulate the effect of the human skin barrier.
A solution of 4% low melting point agarose (INVITROGEN ™ LMP Agarose) in phosphate buffered saline (PBS) (SIGMA) was prepared and cooled to room temperature for a few minutes. The SRBCs were centrifuged and resuspended in PBS until a final concentration of 2% was obtained. Equal volumes of both preparations were mixed and poured onto a glass surface with a mold (18x7.5 cm) and allowed to cool to room temperature. Once the agarose with SRBCs was set, rectangles were cut and placed on slides and kept at 4 °C in a humidification chamber (maximum 72 hours until use).
Pig small intestine tissue was washed in a 50 mM saline solution and then cut in rectangular sections. The sections were sterilized in a disinfecting solution consisting of 87% 110 mM saline, 10% ethanol (PANREAC, ethanol 96%) and 3% hydrogen peroxide for 3 hours, after which they were left in physiological serum overnight. The next day, the sections were stretched on a glass surface and allowed to dry for a few minutes in the open air. The pretreated sections of the pig small intestine were placed on the SRBC agarose rectangles.
Cutting tentacles of the same size is a complicated process due to the contraction and expansion of the tentacles after their manipulation. In order to control the sting area, we design plastic molds obtained through a 3D printer.
Tentacle pieces of approximately 3 cm long were incubated on reductor or inhibitory solutions (Method 3) for 5 minutes. Consecutively, the agarose rectangles were stung by a sting diameter of 57,35 mm^2 for 1 minute. A weight of 0,66 g was applied to ensure the contact between the tentacle and the skin. After the sting process, the plastic molds and the intestine sections were removed and the SRBC's agarose rectangles were stored in the humidification chamber at room temperature. After a period of 22 hours, images of the hemolytic areas were obtained with a camera. Hemolytic areas were calculated using the Fiji version of ImageJ software (J. Schindelin et al., Fiji: an open-source platform for biological-image analysis. Nature methods, 2012, vol. 9, pp. 676-682). Table 2. Inhibitory efficacy on the venom load to P. noctiluca.

P. noctiluca [2] = assay: Tentacle Solution Assay (TSA): inhibition of chemically stimulated nematocyst discharge; format: cell-based; parameters: key to Inhibitory effect (TSA) using 5% acetic acid as chemical stimulator Discharge: 0: no discharge was observed; +: low discharge of nematocysts; ++: medium discharge of nematocysts; +++: high discharge of nematocysts; key to Inhibitory effect (TSA) using 5% acetic acid as chemical stimulator Effect: Neutral effect solution: nematocysts were not activated after the incubation in the first solution but were activated by the subsequent chemical stimulation with 5% acetic acid solution; Reductor effect solution: nematocysts were not activated after the incubation in the first solution, but some isolated nematocysts discharge was observed activated by the subsequent chemical stimulation with 5% acetic acid solution; Inhibitory effect solution: nematocysts were not activated after the incubation in the first solution or by the subsequent chemical stimulation with 5% acetic acid solution; conditions: tentacle pieces incubated 5 minutes in 3 ml solution, then 15 µl of 5% acetic acid
Description: as §1
Tentacles pieces of approximately 3 cm long were transferred to slides ([…]). The samples were observed under the light microscope in order to ensure their integrity. Subsequently, tentacles were incubated on microwells with 3 ml of each solution for 5 minutes. In order to know the inhibitory effect, the neutral solutions were chemically stimulated by means of 15 µl of 5% acetic acid solution in distilled water (an activator solution per se).
The nematocysts response was classified qualitatively in four categories in accordance with Pyo et al. (2016): • 1. 0: no discharge was observed; • 2. +: low discharge of nematocysts; • 3. ++: medium discharge of nematocysts; • 4. +++: high discharge of nematocysts.
The effect was classified in one of three categories: • 1. Neutral effect solution: nematocysts were not activated after the incubation in the first solution but were activated by the subsequent chemical stimulation with 5% acetic acid solution; • 2. Reductor effect solution: nematocysts were not activated after the incubation in the first solution, but some isolated nematocysts discharge was observed activated by the subsequent chemical stimulation with 5% acetic acid solution; • 3. Inhibitory effect solution: nematocysts were not activated after the incubation in the first solution or by the subsequent chemical stimulation with 5% acetic acid solution. Table 1. Inhibitory efficacy on the nematocyst discharge in P. noctiluca.

SMILES	discharge of nematocysts (P. noctiluca [1])	Inhibitory effect (TSA) using 5% acetic acid as chemical stimulator Discharge (P. noctiluca [2])	Inhibitory effect (TSA) using 5% acetic acid as chemical stimulator Effect (P. noctiluca [2])	Venom load - Hemolytic area (%) (P. noctiluca [1]; tentacles incubated 5 minutes in solution, sting 1 minute through pig intestine on sheep red blood cell agarose, read after 22 hours)	% Inhibitory (P. noctiluca [1]; {})
CC(C)(C)C1CCC(O)CC1 (stereo not drawn) [4-tert-butyl cyclohexanol]	significantly reduces				
CC(=O)O [5% Acetic acid solution, acetic acid]		+++	Activator		
CC(O)CO (stereo not drawn) [100% Propylene glycol, propylene glycol]		+	Reductor		
CC(O)CCO (stereo not drawn) [100% Butylene glycol, butylene glycol]		+	Reductor	26.54 ± 19.66%	56.33%
O=C(CO)c1ccccc1 [HAP, hydroxy acetophenone]	significantly reduces				
CCO [100% Ethanol, ethanol]		++	Neutral/Reductor		
